# Measured values published in patent EP3797781A1, “USE OF EC-7072 AND SYNERGIC COMPOSITIONS THEREOF IN TREATMENT OF CHRONIC LYMPHOCYTIC LEUKEMIA” (priority 2019, dated 2021).
# Tested on: leukemia cells
# Experiment: Apoptosis of leukemia cells by Annexin V/PI staining
# Type: cell-based, human
# Settings: 0 - 400 nM, 24 hours; PBMCs from patients with CLL (n = 6)
# Description: Cell viability and apoptosis were evaluated by double-staining with the mitochondrial inner transmembrane potential (ΔΨm)-sensitive dye DiOC6(3) (3,3'-dihexyloxacarbocyanine iodide; Sigma-Aldrich) and the exclusion dye propidium iodide (PI; Immunostep), allowing identification of apoptotic [DiOC6(3)^low PI^-] and dead [PI^+] cells as per Proc. Natl. Acad. Sci. U.S.A. (2014) 111(8):3020-3025 and Methods Mol. Biol. (2016) 1419:1-16. Briefly, PBMCs were resuspended in culture medium containing 20 nM DiOC6(3) and incubated for 30 minutes at 37 °C. Then, PI (1 µg/mL) was added and cells were further incubated for 10 minutes at room temperature (RT). Cells were analyzed by flow cytometry considering DiOC6(3)^+PI^- cells as viable. In some experiments, apoptosis was evaluated by staining with Annexin V/PI. […]
# The induction of caspase-dependent apoptosis on primary CLL cells by EC-7072 was assessed by: • (i) incubating PBMCs isolated from patients with CLL (n = 6) following treatment with increasing concentrations of EC-7072 (0 - 400 nM) for 24 hours. Apoptosis of leukemia cells was evaluated by cytofluorometric assessment of Annexin V/PI staining to obtain percentages of apoptotic [Annexin V^+ PI^-] and dead [PI^+] cells (Figure 3A); • (ii) incubating PBMCs and T cells isolated from patients with CLL (n = 3) following treatment with EC-7072 (200 nM) for 24 hours. […]
structure (smiles),measurement,value
"CO[C@@H]([C@@H]1Cc2cc3cc(O[C@H]4C[C@@H](O[C@H]5C[C@@H](O)[C@H](O)[C@@H](C)O5)[C@H](O)[C@@H](C)O4)c(C)c(O)c3c(O)c2C(=O)[C@H]1O[C@H]1C[C@@H](O[C@H]2C[C@@H](O[C@H]3C[C@](C)(O)[C@H](O)[C@@H](C)O3)[C@@H](O)[C@@H](C)O2)[C@H](O)[C@@H](C)O1)[C@@H](O)C(C)=O [EC-7072, mithramycin SK]",apoptosis of leukemia cells (Annexin V/PI),significantly induces CLL cell apoptosis
